Results taken from patent publication US8476408B2, “Unacylated ghrelin and analogs as therapeutic agents for vascular remodeling in diabetic patients and treatment of cardiovascular disease” (Alize Pharma SAS, priority 2008, dated 2013).
Where no end group is shown, it is not given here. The star is where a group is joined. Octanoyl = CCCCCCCC(=O)*

Legend:
CAC [1] = experiment: CAC mobilization assay in healthy subjects and diabetic patients; assay type: in vivo, human; conditions: diabetic patients compared to normal subjects, 6 hours treatment; FIG. 3B
Procedure: All the subjects underwent the following testing session: • UAG (3.0 μg/kg/h iv. as infusion for 12 h from 0 to 12 hours); • isotonic saline (infusion from 0 to 12 hours).
All tests were performed starting at 08.30-09.00 a.m. after overnight fasting, 30 minutes after an indwelling catheter had been placed into a forearm vein by slow infusion of isotonic saline. Blood samples were taken at 0 h, 6 h and 12 h.
Mobilization assay—CAC recovered from healthy subjects and diabetic patients, treated with UAG or saline for 6 h and 12 h, were evaluated. Total number of MNC was counted by 3 independent investigators. The percentage of CAC was calculated by comparing CAC obtained from diabetic patients and healthy donors, treated for 6 h and 12 h with UAG, AG or saline, to CAC recovered at time 0.

human arteries = conditions: Ref. 35; cited from earlier work
[2] = system: human umbilical vein endothelial cells (HUVECs); conditions: Ref. 5; cited from earlier work
[3] = system: human microvascular endothelial cells (HMVECs); conditions: Ref. 4; cited from earlier work
cardiomyocytes = conditions: Ref. 8; cited from earlier work
CAC [4] = experiment: Detection of ROS in CAC (DCF-DA assay, FACS); assay type: cell-based, human; conditions: for baseline level of ROS production: compared to untreated cells, FIG. 1B, 1E
Procedure: Peripheral-blood mononuclear cells (PB-MNC) isolated by Fycoll Histopaque 1077 (Sigma) were resuspended in 20% FBS 199 Medium and plated on fibronectin-coated dishes (Biocoat, Becton Dickinson Labware) as described by Hill et al. (Ref. 19). Human UAG studies were performed on CAC recovered from normal donors and diabetic patients. The purity of sorted cells was assessed by FACS analysis (Ref. 20). For experiments, the isolated CAC were cultured under 5% CO2 at 37° C. for 4 days on 20 μg/ml fibronectin-coated dishes in EGM-2 medium containing 10% FBS, hydrocortisone, human Fibroblast Growth Factor, Vascular Endothelial Growth Factor, Insulin Growth Factor 1, ascorbic acid, human Epidermal Growth Factor, gentamicin and amphotericin-B (Cambrex, Walkersville, Md., USA) alone or in combination with 1 μM UAG and 1.2 mg/ml AGE. In selected experiments, isolated CAC were cultured in EBM-2 medium (Cambrex, Walkersville, Md., USA) supplemented with 10 ng/ml of IL-3. FACS was used to analyze their phenotype (anti-CD45, anti-CD31, anti-CD105, anti-CD14 antibodies were used) (Ref. 22).
Detection of ROS—DCF-DA (0.5 μM final concentration) was added to CAC in the indicated culture conditions. At the indicated times, the cells were subjected to FACS analysis and processed as previously described (Ret. 22). H2O2 was used as positive control.

HIT-T15 β-cells = experiment: Survival of cytokine-treated HIT-T15 β-cells (MTT); assay type: cell-based; conditions: cytokines (IFN-γ/TNF-α/IL-1β), peptides 1 nM to 100 nM
Procedure: The survival effect of UAG (6-13) (SEQ ID NO: 6), UAG (8-13) (SEQ ID NO: 7), UAG (8-12) (SEQ ID NO: 8), UAG (8-11) (SEQ ID NO: 12), UAG (9-12) (SEQ ID NO: 9) and UAG (9-11) (SEQ ID NO: 10) was assessed in cytokine-treated HIT-T15 β-cells. […] The protective effects of peptides UAG (8-13) (SEQ ID NO: 7) and UAG (8-12) (SEQ ID NO: 8) were found similar to those of UAG (1-14) (SEQ ID NO: 2) and UAG (1-18) (SEQ ID NO: 3). A peptide made of the inverse sequence of UAG (1-14) (SEQ ID NO: 2) and named UAG (14-1) (SEQ ID NO: 11), was used as negative control for these experiments. […] These effects were however lower than those of UAG (6-13) (SEQ ID NO: 6).

CAC membranes = experiment: Competition binding with [125I-Tyr4]-UAG on CAC membranes; parameters: species or system human; conditions: 100 nM unlabelled competitor, radioligand 0.25 nM; FIG. 5A
Description: The specific binding of [^125I-Tyr^4]-UAG (calculated as difference between binding in the absence, control, and in the presence of UAG) represented about 75% of the control value (P<0.001) and was detected either on fresh (0.25 and 0.26 fmol) or frozen-thawed (0.20 and 0.33 fmol) CAC membranes from two different cell preparations.

GH secretion = conditions: compared with Ghrelin-28; cited from earlier work
cloned cells = conditions: cited from earlier work

AG: 28 amino acid peptide with an n-octanoyl modification on the Ser3 residue; endogenous ligand of GHSR (GSS(Octanoyl)FLSPEHQRVQQRKESKKPPAKLQPR; listed as Homo sapiens) [reference compound]
number of recovered CAC (CAC [1]): No statistical differences | vasodilator action (human arteries): vasodilator actions | basal and TNF-α-induced chemotactic cytokine production and mononuclear cell adhesion [2]: inhibit basal and TNF-α-induced chemotactic cytokine production and mononuclear cell adhesion | cell proliferation, migration, in vitro angiogenesis and ERK2 phosphorylation [3]: significantly increased cell proliferation, migration, in vitro angiogenesis and ERK2 phosphorylation | experimentally-induced cell death (cardiomyocytes): inhibit experimentally-induced cell death | baseline level of ROS production (CAC [4]): A protective effect failed to be detected

EHQRVQ [UAG (8-13)]
survival effect on cytokine-induced cell death (HIT-T15 β-cells): significant protective effect at all the concentrations examined

GSSFLSPEHQRVQQ [UAG (1-14)]
survival effect on cytokine-induced cell death (HIT-T15 β-cells): similar

GSSFLSPEHQRVQQRKES [UAG (1-18)]
survival effect on cytokine-induced cell death (HIT-T15 β-cells): similar

Glu-His-Gln-Arg-Val (EHQRV; listed as Homo sapiens) [UAG (8-12)]
survival effect on cytokine-induced cell death (HIT-T15 β-cells): significant, although reduced protection, only at 10 nM and 100 nM

Ser-Pro-Glu-His-Gln-Arg-Val-Gln (SPEHQRVQ; not fully specified (C-terminus); printed as Ser-Pro-Glu-His-Gln-Arg-Val-Gln; listed as Homo sapiens) [UAG (6-13)]
inhibition of binding of [125I-Tyr4]-UAG to CAC membranes (CAC membranes): inhibited | survival effect on cytokine-induced cell death (HIT-T15 β-cells): potently inhibited cytokine-induced cell death | level of ROS production in AGE-cultured cells (CAC [4]; AGE-cultured CAC, FIG. 1C, 1F): reduced | baseline level of ROS production (CAC [4]): also reduces the baseline level of ROS production

UAG (8-11): fragment of unacylated ghrelin, residues 8 to 11 of SEQ ID NO: 1 (EHQR; listed as Homo sapiens)
survival effect on cytokine-induced cell death (HIT-T15 β-cells): significant survival effect only at 100 nM

UAG (9-11): fragment of unacylated ghrelin, residues 9 to 11 of SEQ ID NO: 1 (HQR)
survival effect on cytokine-induced cell death (HIT-T15 β-cells): no significant effect at both concentrations tested

UAG (9-12): fragment of unacylated ghrelin, residues 9 to 12 of SEQ ID NO: 1 (HQRV; listed as Homo sapiens)
survival effect on cytokine-induced cell death (HIT-T15 β-cells): significantly increased cell survival at both the concentrations tested

des Gln-14 Ghrelin: isoform of ghrelin-28, a 27 amino acid peptide possessing serine 3 modification by n-octanoic acid (GSS(Octanoyl)FLSPEHQRVQRKESKKPPAKLQPR; listed as Homo sapiens)
GH secretion (GH secretion): induces GH secretion with similar potency as Ghrelin-28 | Ca2+ fluxes (cloned cells): elicits Ca^2+ fluxes in cloned cells
